From patent US20140154312A1, “ORAL TARGETTED DRUG DELIVERY SYSTEM” (priority 2010, published 2014)
“Also recorded” adds a separate entry of the source.

What was measured:
[1] = tested on: colonic micro flora (caecal contents of the rat); assay: In vitro dissolution (drug release) of natural gum based 5-FU delivery systems in medium containing caecal contents of orally treated rats; type: physicochemical, Wister Albino rats; settings: label = treatment given p.o. to the rats whose caecal contents (4% w/v) were used, 5-FU 8 mg/day, probiotics 1 g/day, pH 1.2 for 2 h, pH 6.8 for 3 h, then caecal medium
Description: (§1) To answer the questions as above, the inventors adopted an innovative experimental approach using a ‘living biological system’ comprising rats. All the experimental procedures were approved by the Institutional Animal Ethics Committee vide Approval Number 954/ac/06/CPCSEA/09/19. The experimental study was conducted on thirty Wister Albino rats. The animals were divided into 6 groups of five each.
(§2) The dosages were freshly prepared every day by suspending in milk. They were administered by oral gavage needle for first and subsequent exposure for a duration of five days each, at an interval of 20 days.
2 animals from each group were humanely sacrificed for the collection of caecal contents in sterile petri plates, which was immediately utilized for the dissolution studies. For dissolution studies, compression coated tablets of 5-FU with natural gums and microspheres of 5-FU with natural gums were used. The experiments were carried out in 250 ml beaker immersed in water maintained in the jars of dissolution test apparatus. Initial studies were carried out in 150 ml of 0.1N HCl (pH 1.2) for 2 h. After this, NaOH was added to the dissolution media and the pH was adjusted to 6.8. The volume was made up to 200 ml with phosphate buffer of pH 6.8. The study was continued for 3 hours after which, caecal contents (4% w/v) were added. […]

Albino Wister Rats = assay: Unwanted side-effects on oral administration in rats (hair, body weight, diarrhea, caecal contents, colon histopathology); type: in vivo; settings: p.o., 5-FU 8 mg/day for 5 days, probiotics 1 g/day where given
Description: as §1, §2
To address whether the unwanted side-effects of colonic drugs e.g. diarrhea, hair loss etc. could also be reduced or eliminated using the ‘innovative approach’ of the present invention, trials were conducted in animals (rats) using 5-FU as a ‘model’.

- % drug released in 24 h on exposure to caecal contents of the rat: Compression coated tablets of 5-FU coated with natural gums ([1]; excipient-only control rats: 83): 52%
- % drug released in 24 h on exposure to caecal contents of the rat: 5-FU loaded microspheres comprising the drug and natural gums ([1]; excipient-only control rats: 92.20): 41.56%
Structure (SMILES): O=c1[nH]cc(F)c(=O)[nH]1 [5-FU powder, 5-Fluorouracil]
- body weight loss (Albino Wister Rats): loss
- diarrhea (Albino Wister Rats): bloody diarrhea
- histopathological examination of the colon (Albino Wister Rats): ulceration and loss of epithelial lining; also recorded: diffuse ulceration of the colonic mucosa with loss of lining epithelium
- loss of hair (Albino Wister Rats): loss of hair
- body weight loss (Albino Wister Rats; listed as 5-FU): loss of weight
- loss of hair (Albino Wister Rats; listed as 5-FU): loss of weight and hair
